# From patent US20250206732A1, “COMPOUNDS AND METHODS FOR THE TARGETED DEGRADATION OF KRAS” (Arvinas Operations, Inc., priority 2022, published 2025)
# Target: T1, AsPC-1 HiBiT-KRASG12D (Homo sapiens, UniProt P01116, G12D)
# T1 construct: insert the HiBiT tag onto the N-terminus of one or more of the endogenous KRAS alleles; endogenous in cells; host or cells: AsPC-1 (ATCC CRL-1682), CRISPR-Cas9 knock-in clone, one tagged allele
# Experiment: HiBiT degradation assay (G12D), AsPC-1 HiBiT-KRASG12D cells
# Assay type: cell-based
# Details: 24 hours treatment; for Dmax: ASPC1, AsPC-1 HiBiT-KRASG12D cells, maximum degradation observed; for DC50: AsPC-1 HiBiT-KRASG12D cells, HiBiT luminescence
# Outline: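 AsPC-1 cells carried a CRISPR knock-in of an N-terminal HiBiT tag on endogenous KRAS G12D. After 24 h compound treatment at 37 °C (triplicate), viability was read by alamar blue (4 h, fluorescence, normalized to DMSO). HiBiT-KRAS levels were then measured by Nano-Glo HiBiT lytic luminescence after 45 min at room temperature.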
# T1 sequence (P01116 1-188 isoform P01116-2 G12D): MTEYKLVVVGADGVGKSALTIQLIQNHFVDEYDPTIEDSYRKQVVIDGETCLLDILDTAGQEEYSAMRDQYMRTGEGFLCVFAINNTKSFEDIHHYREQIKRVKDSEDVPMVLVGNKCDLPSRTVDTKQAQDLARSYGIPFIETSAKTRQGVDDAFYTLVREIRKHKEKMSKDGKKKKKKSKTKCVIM
SMILES,Dmax,DC50
"CCc1cccc2cc(O)cc(-c3ncc4c(N5CC6CCC(C5)N6)nc(OC[C@@]56CCCN5[C@H](COC(=O)N5CCN(c7cc([C@H](C(=O)N8C[C@H](O)C[C@H]8C(=O)N[C@@H](C)c8ccc(-c9scnc9C)cc8)C(C)C)on7)C[C@@H]5C)CC6)nc4c3F)c12 [Compound 325, [(3S,8S)-8-[[4-(3,8-diazabicyclo[3.2.1]octan-3-yl)-7-(8-ethyl-3-hydroxy-1-naphthyl)-8-fluoro-pyrido[4,3-d]pyrimidin-2-yl]oxymethyl]-1,2,3,5,6,7-hexahydropyrrolizin-3-yl]methyl (2S)-4-[5-[(1R)-1-[(2S,4R)-4-hydroxy-2-[[(1S)-1-[4-(4-methylthiazol-5-yl)phenyl]ethyl]carbamoyl]pyrrolidine-1-carbonyl]-isobutyl]isoxazol-3-yl]-2-methyl-piperazine-1-carboxylate]",80 to 100%,< 600 nM
"CCc1cccc2cc(O)cc(-c3ncc4c(N5CC6CCC(C5)N6)nc(OC[C@@]56CCCN5[C@H](COc5cc([C@@H](C(=O)N7C[C@H](O)C[C@H]7C(=O)N[C@@H](C)c7ccc(-c8scnc8C)cc7)C(C)C)on5)CC6)nc4c3F)c12 [Compound 30, (2S,4R)-1-[(2S)-2-(3-{[(3S,7aS)-7a-{[(4-{3,8-diazabicyclo[3.2.1]octan-3-yl}-7-(8-ethyl-3-hydroxynaphthalen-1-yl)-8-fluoropyrido[4,3-d]pyrimidin-2-yl)oxy]methyl}-hexahydro-1H-pyrrolizin-3-yl]methoxy}-1,2-oxazol-5-yl)-3-methylbutanoyl]-4-hydroxy-N-[(1S)-1-[4-(4-methyl-1,3-thiazol-5-yl)phenyl]ethyl]pyrrolidine-2-carboxamide]",20 to 60%,< 600 nM
"CCc1cccc2cc(O)cc(-c3ncc4c(N5CC6CCC(C5)N6)nc(OC[C@@]56CCCN5[C@H](COC(=O)N(C)Cc5cc([C@@H](C(=O)N7C[C@H](O)C[C@H]7C(=O)N[C@@H](C)c7ccc(-c8scnc8C)cc7)C(C)C)on5)CC6)nc4c3F)c12 [Compound 91, [(3S,7aS)-7a-{[(4-{3,8-diazabicyclo[3.2.1]octan-3-yl}-7-(8-ethyl-3-hydroxynaphthalen-1-yl)-8-fluoropyrido[4,3-d]pyrimidin-2-yl)oxy]methyl}-hexahydro-1H-pyrrolizin-3-yl]methyl N-({5-[(2S)-1-[(2S,4R)-4-hydroxy-2-{[(1S)-1-[4-(4-methyl-1,3-thiazol-5-yl)phenyl]ethyl]carbamoyl}pyrrolidin-1-yl]-3-methyl-1-oxobutan-2-yl]-1,2-oxazol-3-yl}methyl)-N-methylcarbamate]",20 to 60%,1000 to 3000 nM
"CCc1cccc2cc(O)cc(-c3ncc4c(N5C[C@H]6CC[C@@H](C5)N6)nc(OCCN5CCC(C)(CN6CCN(c7cc([C@@H](C(=O)N8C[C@H](O)C[C@H]8C(=O)N[C@@H](C)c8ccc(-c9scnc9C)cc8)C(C)C)on7)CC6)CC5)nc4c3F)c12 [Compound 188, (2S,4R)-1-((S)-2-(3-(4-((1-(2-((4-((1R,5S)-3,8-diazabicyclo[3.2.1]octan-3-yl)-7-(8-ethyl-3-hydroxynaphthalen-1-yl)-8-fluoropyrido[4,3-d]pyrimidin-2-yl)oxy)ethyl)-4-methylpiperidin-4-yl)methyl)piperazin-1-yl)isoxazol-5-yl)-3-methylbutanoyl)-4-hydroxy-N—((S)-1-(4-(4-methylthiazol-5-yl)phenyl)ethyl)pyrrolidine-2-carboxamide]",20 to 60%,1000 to 3000 nM
CCc1cccc2cc(O)cc(-c3ncc4c(N5CC6CCC(C5)N6)nc(OCCN5CCC(CN6CC7(C6)CN(c6cc([C@@H](C(=O)N8C[C@H](O)C[C@H]8C(=O)N[C@@H](C)c8ccc(-c9scnc9C)cc8)C(C)C)on6)C7)CC5)nc4c3F)c12 [Compound 236],,> 3000 nM
"CCc1cccc2cc(O)cc(-c3ncc4c(N5CC6CCC(C5)N6)nc(OCCN5CC[C@H]6CN(c7cc([C@H](C(=O)N8C[C@H](O)C[C@H]8C(=O)N[C@@H](C)c8ccc(-c9scnc9C)cc8)C(C)C)on7)C[C@H]6C5)nc4c3F)c12 (relative stereo) [Compound 69, (2S,4R)-1-[(2R*)-2-{3-[(3aR**,7aR***)-5-{2-[(4-{3,8-diazabicyclo[3.2.1]octan-3-yl}-7-(8-ethyl-3-hydroxynaphthalen-1-yl)-8-fluoropyrido[4,3-d]pyrimidin-2-yl)oxy]ethyl}-octahydro-1H-pyrrolo[3,4-c]pyridin-2-yl]-1,2-oxazol-5-yl}-3-methylbutanoyl]-4-hydroxy-N-[(1S)-1-[4-(4-methyl-1,3-thiazol-5-yl)phenyl]ethyl]pyrrolidine-2-carboxamide]",80 to 100%,< 600 nM
"C#Cc1c(F)ccc2cc(O)cc(-c3ncc4c(N5CC6CCC(C5)N6)nc(OCCN5CCC(CC6CN(c7cc([C@@H](C(=O)N8C[C@H](O)C[C@H]8C(=O)N[C@@H](C)c8ccc(-c9scnc9C)cc8)C(C)C)on7)C6)CC5)nc4c3F)c12 [Compound 217, (2S,4R)-1-[(2S)-2-(3-{3-[(1-{2-[(4-{3,8-diazabicyclo[3.2.1]octan-3-yl}-7-(8-ethynyl-7-fluoro-3-hydroxynaphthalen-1-yl)-8-fluoropyrido[4,3-d]pyrimidin-2-yl)oxy]ethyl}piperidin-4-yl)methyl]azetidin-1-yl}-1,2-oxazol-5-yl)-3-methylbutanoyl]-4-hydroxy-N-[(1S)-1-[4-(4-methyl-1,3-thiazol-5-yl)phenyl]ethyl]pyrrolidine-2-carboxamide]",20 to 60%,1000 to 3000 nM
"CCc1cccc2cc(O)cc(-c3ncc4c(N5CC6CCC(C5)N6)nc(OCCN5CCC(Oc6cc([C@@H](C(=O)N7C[C@H](O)C[C@H]7C(=O)N[C@@H](C)c7ccc(-c8scnc8C)cc7)C(C)C)on6)CC5)nc4c3F)c12 (relative stereo) [Compound 139, (2S,4R)-1-[(2R*)-2-{3-[(1-{2-[(4-{3,8-diazabicyclo[3.2.1]octan-3-yl}-7-(8-ethyl-3-hydroxynaphthalen-1-yl)-8-fluoropyrido[4,3-d]pyrimidin-2-yl)oxy]ethyl}piperidin-4-yl)oxy]-1,2-oxazol-5-yl}-3-methylbutanoyl]-4-hydroxy-N-[(1S)-1-[4-(4-methyl-1,3-thiazol-5-yl)phenyl]ethyl]pyrrolidine-2-carboxamide]",< 20%,1000 to 3000 nM
"CCc1cccc2cc(O)cc(-c3ncc4c(N5CC6CCC(C5)N6)nc(O[C@H](C)CN5CCC6(CC5)CN(c5cc([C@H](C(=O)N7C[C@H](O)C[C@H]7C(=O)N[C@@H](C)c7ccc(-c8scnc8C)cc7)C(C)C)on5)C6)nc4c3F)c12 [Compound 25, (2S,4R)-1-[(2R)-2-(3-{7-[(2R)-2-[(4-{3,8-diazabicyclo[3.2.1]octan-3-yl}-7-(8-ethyl-3-hydroxynaphthalen-1-yl)-8-fluoropyrido[4,3-d]pyrimidin-2-yl)oxy]propyl]-2,7-diazaspiro[3.5]nonan-2-yl}-1,2-oxazol-5-yl)-3-methylbutanoyl]-4-hydroxy-N-[(1S)-1-[4-(4-methyl-1,3-thiazol-5-yl)phenyl]ethyl]pyrrolidine-2-carboxamide]",20 to 60%,600 to 1000 nM
